Laboratory results published in ChEMBL document CHEMBL1129842, “ATP-sensitive potassium channel openers: Synthesis and antihypertensive activity of 4-bicyclyloxybenzopyrans” (1997).

Tests used:
Rattus norvegicus [1] = test: Antihypertensive activity in spontaneously hypertensive rats (SHR''s) was evaluated after oral administration; ED50 mmHg; format: functional
Rattus norvegicus [2] = test: Potassium channel opening activity is expressed as area under curve (AUC), determined in spontaneously hypertensive rats (SHR's) after oral administration; format: functional
[3] = Rattus norvegicus, po, read-out: ED50

Compound	ED50 (Rattus norvegicus [1]; [3]) [mg/kg]	ECAUC0.2 (Rattus norvegicus [2]) [µM]	ED50 (Rattus norvegicus [1]) [mg/kg]
CN1N=C(O[C@@H]2c3cc(C#N)ccc3OC(C)(C)[C@@]2(C)O)[C@@H]2C[C@@H]2C1=O	0.0023	0.021	
CN1N=C(N[C@@H]2c3cc(C#N)ccc3OC(C)(C)[C@H]2O)[C@@H]2C[C@@H]2C1=O	0.0065		
Cn1nc(O[C@@H]2c3cc(C#N)ccc3OC(C)(C)[C@H]2O)ccc1=O	0.0064	0.16	
CN1N=C(O[C@@H]2c3cc(C#N)ccc3OC(C)(C)[C@H]2O)C2C(C1=O)C2(C)C (mixture of isomers)	> 0.1		
CN1N=C(OC2c3ccc([N+](=O)[O-])cc3OC(C)(C)C2O)C2CC2C1=O (racemic)	> 0.3		
CN1N=C(OC2c3cc([N+](=O)[O-])ccc3OC(C)(C)C2O)C2CC2C1=O (racemic)	0.049		
CN1N=C(OC2c3cc(C#N)ccc3OC(C)(C)C2(C)O)C2CC2C1=O (racemic)	0.0042		
Cn1nc(OC2c3cc(C#N)ccc3OC(C)(C)C2O)ccc1=O (racemic)	0.023	0.25	
Cn1nc(OC2c3cc(C#N)ccc3OC(C)(C)C2O)c2c(c1=O)CCC2 (racemic)	0.86		
CN1N=C(O[C@@H]2c3cc(C(F)(F)C(F)(F)F)ccc3OC(C)(C)[C@H]2O)[C@@H]2C[C@@H]2C1=O (racemic)	0.047		
Cn1nc(OC2c3cc(C#N)ccc3OC(C)(C)C2O)c2ccccc2c1=O (racemic)	> 10		
CC1(C)Oc2ccc(C#N)cc2C(N2CCCC2=O)C1O (racemic) [CROMAKALIM]	0.31	2.8	
CN1N=C(OC2c3cc(C#N)ccc3OC(C)(C)C2O)C2CC2C1=O (racemic; form 1)			>1
CN1N=C(OC2c3cc(C#N)ccc3OC(C)(C)C2O)C2CC2C1=O (racemic; form 2)		0.39	0.047
CN1N=C(O[C@@H]2c3cc(C#N)ccc3OC(C)(C)[C@H]2O)C2CC2C1=O (single isomer, unassigned; (-))	0.029	0.18	
CC1(C)Oc2ccc(C#N)cc2[C@@H](N2CCCC2=O)[C@@H]1O [LEVCROMAKALIM]	0.14	1.6	
